Reference: patent US20130171252A1, “Formulation Comprising a Type B Lantibiotic” (NOVACTA […], priority 2010, published 2013)
Values after ≈ are worked out from the molar mass of the structure shown. Where two headings read alike, the source gives them in different places.

How the values were obtained:
[1] = Susceptibility to enzymatic digestion in simulated intestinal fluid (FIG. 1); assay type: in vitro ADME; conditions: 37° C., HPLC (FIG. 1)
Method: Nisin and the compound of compound 1 were tested for their susceptibility towards enzymatic digestion in the intestine using a simulated intestinal fluid (SIF). The SIF was based on the standard USP solutions for simulated intestinal fluids and its activity was confirmed against Bovine Serum Albumin (Hilger et al, Clin. Exp. Immunol. 2001, 123, 387-94). The compounds were incubated in SIF at 37° C. and their concentrations quantified by analytical HPLC (UV detection at 210 nm using the conditions outlined in Table 1).

[2] = Dissolution testing of the capsule of Example 1 in simulated gastric fluid; assay type: physicochemical; conditions: hard gelatine capsule size 00, 50 mg compound 1, 10 mL SGF, 37° C., stirred
Method: A hard gelatine capsule (size 00) was opened into two segments and compound 1 (50 mg) was weighed into the larger segment. The capsule segment containing compound 1 was sealed by inserting and closing the smaller segment over the larger capsule section. A hard gelatine capsule (size 00) containing up to 500 mg can be prepared employing this method.
The capsule of Example 1 was dropped into a 10 mL of simulated gastric fluid (SGF) at 37° C. […] Samples of the solution/suspension (100 μL) were withdrawn at 1, 2, 3, 4, 5, 6, 7, 8, 9, 10, 15, 20, 25, 30 and 70 minutes after the addition of the capsule to SGF.
The samples were clarified using a bench top centrifuge to remove solid from the suspension. The clarified supernatants were diluted with 50% ethanol and then were analysed by HPLC.

[3] = Example 2: solubility and dissolution behaviour from hard gelatin capsule in SGF; assay type: physicochemical; conditions: 50 mg in size 00 hard gelatin capsule, 10 mL SGF, 37° C.
Method: The solubility and dissolution behaviour of compound 1 contained in a hard gelatin capsule when suspended in simulated gastric fluid (SGF) has been monitored at 37° C.
Compound 1 (50 mg) was transferred into a size 00 hard gelatin capsule. This capsule represents the lowest dose that is likely to be administered in clinical trials. The capsule was dropped into 10 mL of SGF at 37° C. and the sample was intermittently swirled by hand. Dissolution was monitored visually and by HPLC over a one hour period. For the dissolution experiment monitored by HPLC, the sample was stirred continuously with a magnetic stirrer at 37° C. 100 ul samples were withdrawn from the dissolution experiment and were diluted with 900 ul water. The diluted sample was then centrifuged to remove solid material (mostly gelatin).

[4] = Example 3: solubility in SIF and SGF; assay type: physicochemical; conditions: target 40 mg/ml
Method: 10 mg of compound 1 was suspended in […] Simulated Intestinal Fluid (SIF), and was left on a shaker for 10 minutes, after which time suspension was observed. This was in contrast to an identical sample suspended in SGF which dissolved fully after the same period of time. This sample prepared at a target concentration of 40 mg/ml was centrifuged to remove sediment. The supernatant was then diluted to a target of 1 mg/ml with water and compound 1 content was compared against a 1 mg/mL standard prepared in 50% ethanol (aq) using a HPLC method of Example 2.

[5] = Example 4: stability in SIF over 240 minutes (FIG. 4); assay type: in vitro ADME; conditions: 37° C., HPLC
Method: Compound 1 was incubated in SIF at 37° C. for up to 240 minutes. Aliquots were withdrawn from the test sample and diluted with water prior to analysis by HPLC (as described in Example 2). The compound 1 peak area was recorded and was expressed as a percentage with respect to the time zero sample.

[6] = tested on: C. diff strain 027Can; assay: MIC, agar dilution susceptibility testing, C. diff strain 027Can; assay type: cell-based, Clostridium difficile; conditions: Wilkins-Chalgren Anaerobe agar, anaerobic, 37° C., 48 hours, repeat determinations
Method: (§1) Susceptibility testing for Clostridium difficile strains was performed by two-fold serial antibiotic dilutions in Wilkins-Chalgren Anaerobe agar under anaerobic conditions. Vancomycin was included as a comparator drug. C. difficile cultures were inoculated onto pre-reduced Braziers (C.C.E.Y.) agar plates and grown at 37° C. for 48 hours under anaerobic conditions. Two to three colonies of the 48 hours cultures were inoculated into 5 ml of pre-reduced Schaedlers Broth and grown at 37° C. for 24 hours under anaerobic conditions. This culture was diluted with pre-reduced 0.9% NaCl to achieve the turbidity of the 0.5 McFarland standard and applied to the drug containing plates at a final inoculum of 10^5 cfu/spot. Drug-free growth control plates were included. The plates were incubated in the anaerobic chamber at 37° C. for 48 hours and examined for growth.

[7] = tested on: C. diff strain 37779; assay: MIC, agar dilution susceptibility testing, C. diff strain 37779; assay type: cell-based, Clostridium difficile; conditions: Wilkins-Chalgren Anaerobe agar, anaerobic, 37° C., 48 hours, repeat determinations
Method: as §1

[8] = tested on: C. diff strain 19126; assay: MIC, agar dilution susceptibility testing, C. diff strain 19126; assay type: cell-based, Clostridium difficile; conditions: Wilkins-Chalgren Anaerobe agar, anaerobic, 37° C., 48 hours, repeat determinations
Method: as §1

[9] = tested on: C. diff strain B32; assay: MIC, agar dilution susceptibility testing, C. diff strain B32; assay type: cell-based, Clostridium difficile; conditions: Wilkins-Chalgren Anaerobe agar, anaerobic, 37° C., 48 hours
Method: as §1

[10] = tested on: C. diff strain E16; assay: MIC, agar dilution susceptibility testing, C. diff strain E16; assay type: cell-based, Clostridium difficile; conditions: Wilkins-Chalgren Anaerobe agar, anaerobic, 37° C., 48 hours
Method: as §1

[11] = tested on: C. diff strain P24; assay: MIC, agar dilution susceptibility testing, C. diff strain P24; assay type: cell-based, Clostridium difficile; conditions: Wilkins-Chalgren Anaerobe agar, anaerobic, 37° C., 48 hours
Method: as §1

[12] = tested on: C. diff strain 027SM; assay: MIC, agar dilution susceptibility testing, C. diff strain 027SM; assay type: cell-based, Clostridium difficile; conditions: Wilkins-Chalgren Anaerobe agar, anaerobic, 37° C., 48 hours
Method: as §1

[13] = tested on: C. diff strain P62; assay: MIC, agar dilution susceptibility testing, C. diff strain P62; assay type: cell-based, Clostridium difficile; conditions: Wilkins-Chalgren Anaerobe agar, anaerobic, 37° C., 48 hours
Method: as §1

[14] = tested on: C. diff strain E101; assay: MIC, agar dilution susceptibility testing, C. diff strain E101; assay type: cell-based, Clostridium difficile; conditions: Wilkins-Chalgren Anaerobe agar, anaerobic, 37° C., 48 hours
Method: as §1

[15] = tested on: C. diff strain E4; assay: MIC, agar dilution susceptibility testing, C. diff strain E4; assay type: cell-based, Clostridium difficile; conditions: Wilkins-Chalgren Anaerobe agar, anaerobic, 37° C., 48 hours
Method: as §1

[16] = tested on: C. diff strain P49; assay: MIC, agar dilution susceptibility testing, C. diff strain P49; assay type: cell-based, Clostridium difficile; conditions: Wilkins-Chalgren Anaerobe agar, anaerobic, 37° C., 48 hours
Method: as §1

[17] = tested on: C. diff strain P59; assay: MIC, agar dilution susceptibility testing, C. diff strain P59; assay type: cell-based, Clostridium difficile; conditions: Wilkins-Chalgren Anaerobe agar, anaerobic, 37° C., 48 hours
Method: as §1

[18] = tested on: C. diff strain 630; assay: MIC, agar dilution susceptibility testing, C. diff strain 630; assay type: cell-based, Clostridium difficile; conditions: Wilkins-Chalgren Anaerobe agar, anaerobic, 37° C., 48 hours, repeat determinations
Method: as §1

Compound: CCC(C)[C@@H]1NC(=O)C2NC(=O)[C@H](CC(C)C)NC(=O)[C@H](NC(=O)[C@H]3CSC[C@H](N)C(=O)N[C@@H](CO)C(=O)NCC(=O)N[C@@H](Cc4c[nH]c5ccccc45)C(=O)N[C@@H](C(C)C)C(=O)N3)[C@H](C)SC[C@H](NC(=O)[C@H](CCC(=O)O)NC1=O)C(=O)NCC(=O)N[C@@H]1C(=O)N[C@@H](CC(C)C)C(=O)N[C@@H](C(C)C)C(=O)N[C@@H](CS[C@H]2C)C(=O)N[C@@H](C)C(=O)N[C@H](C(=O)NCCCCCCCN)CS[C@H]1C (stereo partly shown) [Compound 1, Deoxyactagardine B (1,7-diaminoheptane) monocarboxamide]
- stability in SIF [1]: essentially stable
- time to complete release from the capsule into SGF [2]: ≤ 4 min
- dissolution time in SGF [3]: ≤ 3 min
- time in which the bulk dissolves in SGF [3]: less than 5 minutes
- time to reach saturation dissolution in SGF ([3]; HPLC (FIG. 3)): 3 min
- solubility at 10 min ([4]; SGF, 10 minutes on shaker, read-out: solubility in SGF): 40 mg/mL (≈ 20.1 mM)
- solubility at 10 min ([4]; Simulated Intestinal Fluid (SIF), Simulated Intestinal Fluid pH 6.8, 10 minutes on shaker, supernatant by HPLC, read-out: solubility in SIF): < 0.8 mg/mL
- peak area as percentage with respect to the time zero sample [5]: no significant reduction

Compound: Deoxyactagardine B (1,9-diaminononane) monocarboxamide [Compound 7]
- MIC ([6]; listed as Comp 7): 0.5 µg/mL

Compound: deoxyactagardine B [DAB]
- MIC [7]: 4 µg/mL
- MIC [8]: 4 µg/mL
- MIC [9]: 2 µg/mL
- MIC [10]: 2 µg/mL
- MIC [11]: 2 µg/mL
- MIC [12]: 2 µg/mL
- MIC [13]: 2 µg/mL
- MIC [14]: 2 µg/mL
- MIC [6]: 4 µg/mL
- MIC [15]: 2 µg/mL
- MIC [16]: 2 µg/mL
- MIC [17]: 2 µg/mL
- MIC [18]: 4 µg/mL
